pEC50: −log10 of the molar value.

A short description of data set [1]: CC50 assay (CellTiter-Glo) in Huh-7 HCV replicon cells. In kind it is cell-based, human. The note with it: human, 3 days incubation, CellTiter-Glo readout. In short, it runs like this:
(§1)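 Huh-7 cells carrying an HCV replicon (6000/well) exposed to 3-fold serial compound dilutions for 3 days at 37 °C, final DMSO 0.5% where used. EC50 read as replicon luciferase luminescence after cell lysis; CC50 from CellTiter-Glo luminescence after 10 min at room temperature.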
For orientation: ATP-based viability assays read luminescence as a measure of living cells.

Data set [2] deals with HCV replicon in human hepatoma Huh-7 cell line. Kind of data set: Anti-HCV replicon assay (EC50, luciferase). The note with it: Hepatitis C virus, Huh-7, 72 h. In kind it is cell-based. In short, it runs like this:
as §1
Background: In antiviral work, replicon cells carry a viral genome segment that copies itself.

One may read the CC50 as the concentration at which the toxic effect on the cells reaches its halfway point. Low readings indicate greater toxicity to the cells, high ones lower toxicity to the cells. In general, pEC50 refers to the EC50 on a negative log10 scale, so that one unit is a factor of ten. A high value points to a low EC50. For `CC1(Oc2nc(NCc3ccc(S(N)(=O)=O)cc3)nc3ccc(-c4ccc(F)cc4)nc23)CC1` [Example 301, 4-{[6-(4-Fluoro-phenyl)-4-(1-methyl-cyclopropoxy)-pyrido[3,2-d]pyrimidin-2-ylamino]-methyl}-benzenesulfonamide], the CC50 at 3 days in data set [1] is below 5 µM. The compound also had a pEC50 in data set [2] above 7.00.
For `N#CC1(NC(=O)c2ccc(-c3ccc4nc(NCc5ccc(F)cc5)nc(O[C@H]5CCOC5)c4n3)cc2)CC1` [Example 283, N-(1-Cyano-cyclopropyl)-4-[2-(4-fluoro-benzylamino)-4-(tetrahydro-furan-3-yloxy)-pyrido[3,2-d]pyrimidin-6-yl]-benzamide], in data set [1], the CC50 at 3 days is below 5 µM. This compound gave a pEC50 in data set [2] above 7.00.
As to `CC(C)N1CCN(S(=O)(=O)c2cc(-c3ccc4nc(NCc5ccc(S(N)(=O)=O)cc5)nc(NCC(F)(F)F)c4n3)ccc2F)CC1` [Example 204, 4-{[6-[4-Fluoro-3-(4-isopropyl-piperazine-1-sulfonyl)-phenyl]-4-(2,2,2-trifluoro-ethylamino)-pyrido[3,2-d]pyrimidin-2-ylamino]-methyl}-benzenesulfonamide], in data set [1], the CC50 at 3 days is below 5 µM. This compound also had a pEC50 in data set [2] above 7.00.
On to `NS(=O)(=O)c1ccc(CNc2nc(NC3CC3)c3nc(-c4ccc(F)c(NS(=O)(=O)C5CC5)c4)ccc3n2)cc1` [Example 184, 4-{[6-(3-Cyclopropanesulfonylamino-4-fluoro-phenyl)-4-cyclopropylamino-pyrido[3,2-d]pyrimidin-2-ylamino]-methyl}-benzenesulfonamide], for which the CC50 at 3 days in data set [1] is below 5 µM. The compound also gave a pEC50 in data set [2] above 7.00.
Compound `NS(=O)(=O)c1ccc(CNc2nc(C3CC3)c3nc(-c4ccc(C(=O)NC5CC5)cc4)ccc3n2)cc1` [Example 293, N-Cyclopropyl-4-[4-cyclopropyl-2-(4-sulfamoyl-benzylamino)-pyrido[3,2-d]pyrimidin-6-yl]-benzamide] returned a CC50 at 3 days in data set [1] below 5 µM. The same compound showed a pEC50 in data set [2] above 7.00.
In turn, `CCOc1nc(NCc2ccc(S(N)(=O)=O)cc2)nc2ccc(-c3ccc(N4CC(O)CC4=O)cc3)nc12` (stereo not drawn) [Example 227, 4-({4-Ethoxy-6-[4-(4-hydroxy-2-oxo-pyrrolidin-1-yl)-phenyl]-pyrido[3,2-d]pyrimidin-2-ylamino}-methyl)-benzenesulfonamide] showed a CC50 at 3 days in data set [1] above 25 µM. For the same compound, the pEC50 in data set [2] was above 7.00.
For `CCOc1nc(NCCc2ccccc2)nc2ccc(-c3ccc(F)cc3)nc12` [Example 118, [4-Ethoxy-6-(4-fluoro-phenyl)-pyrido[3,2-d]pyrimidin-2-yl]-phenethyl-amine], in that order: 5 to 25 µM and above 7.00.
In data set [1], `CCOc1nc(NCc2ccc(S(N)(=O)=O)cc2)nc2ccc(-c3ccc(C(N)=O)cc3)nc12` [Example 138, 4-{[4-Ethoxy-6-(4-carbamoylphenyl)-pyrido[3,2-d]pyrimidin-2-ylamino]-methyl}-benzenesulfonamide] had a CC50 at 3 days of 5 to 25 µM. The pEC50 in data set [2] was above 7.00.
`CN(CCS(C)(=O)=O)c1nc(NCc2ccc(F)cc2)nc2ccc(-c3cccc(N(CCO)S(C)(=O)=O)c3)nc12` [Example 279, N-(3-{2-(4-Fluoro-benzylamino)-4-[(2-methanesulfonyl-ethyl)-methyl-amino]-pyrido[3,2-d]pyrimidin-6-yl}-phenyl)-N-(2-hydroxy-ethyl)-methanesulfonamide]: the CC50 at 3 days in data set [1] is 5 to 25 µM. For the same compound, the pEC50 in data set [2] was above 7.00.
Turning to `CCOc1nc(NCc2ccc(F)cc2)nc2ccc(-c3ccc(NC(=O)[C@@H]4C[C@@H](O)CN4)cc3)nc12` [Example 88, 4-Hydroxy-pyrrolidine-2-carboxylic acid {4-[4-ethoxy-2-(4-fluoro-benzylamino)-pyrido[3,2-d]pyrimidin-6-yl]-phenyl}-amide], the CC50 at 3 days in data set [1] lay within 5 to 25 µM. Moreover, the pEC50 in data set [2] was above 7.00.
In turn, `CCOc1nc(NCc2ccc(S(N)(=O)=O)cc2)nc2ccc(-c3ccc(NC(=O)[C@H]4CCNC4)c(F)c3)nc12` [Example 120, (S)-4-{[4-Ethoxy-6-(3-fluoro-4-(pyrrolidine-3-carboxamido)-phenyl)-pyrido[3,2-d]pyrimidin-2-ylamino]-methyl}-benzenesulfonamide] gave a CC50 at 3 days in data set [1] of 5 to 25 µM. In addition, in data set [2], the pEC50 was above 7.00.
Take `CS(=O)(=O)N(CCO)c1cccc(-c2ccc3nc(NCc4ccc(S(N)(=O)=O)cc4)nc(NCC(F)(F)F)c3n2)c1` [Example 161, 4-{[4-(2,2,2-Trifluoroethyl)-amino-6-(4-(3-(N-2-hydroxyethyl)methane-sulfonamido)-phenyl)-pyrido[3,2-d]pyrimidin-2-ylamino]-methyl}-benzenesulfonamide]: the CC50 at 3 days in data set [1] was above 25 µM. Moreover, the pEC50 in data set [2] was above 7.00.
Compound `Fc1ccc(CNc2nc(O[C@H]3CCOC3)c3nc(-c4ccc(F)cc4)ccc3n2)cc1` [Example 23, (4-Fluoro-benzyl)-[6-(4-fluoro-phenyl)-4-(tetrahydro-furan-3-yloxy)-pyrido[3,2-d]pyrimidin-2-yl]amine] showed a CC50 at 3 days in data set [1] of 5 to 25 µM. This compound showed a pEC50 in data set [2] above 7.00.
`CCOc1nc(NCc2ccc(F)cc2)nc2ccc(-c3cnc(N)s3)nc12` [Example 100, [6-(2-Amino-thiazol-5-yl)-4-ethoxy-pyrido[3,2-d]pyrimidin-2-yl]-(4-fluoro-benzyl)-amine] gave a CC50 at 3 days in data set [1] below 5 µM. In data set [2], the pEC50 was above 7.00.
In the case of `Fc1ccc(-c2ccc3nc(NCc4cncs4)nc(NCC(F)(F)F)c3n2)cc1` [Example 248, 6-(4-Fluoro-phenyl)-N2-thiazol-5-ylmethyl-N4-(2,2,2-trifluoro-ethyl)-pyrido[3,2-d]pyrimidine-2,4-diamine], the CC50 at 3 days in data set [1] was in the range of 5 to 25 µM. For the same compound, in data set [2], the pEC50 is above 7.00.
Regarding `Fc1ccc(-c2ccc3nc(NCC(F)(F)F)nc(NCC(F)(F)F)c3n2)cc1` [Example 60, 6-(4-Fluoro-phenyl)-2,4-bis(2,2,2-trifluoro-ethylamino)-pyrido[3,2-d]pyrimidine], the CC50 at 3 days in data set [1] was above 25 µM. The pEC50 in data set [2] is above 7.00.
Compound `CCOc1nc(NCc2ccc(S(C)(=O)=O)cc2)nc2ccc(-c3ccc(F)cc3)nc12` [Example 119, [4-Ethoxy-6-(4-fluoro-phenyl)-pyrido[3,2-d]pyrimidin-2-yl]-(4-methanesulfonyl-benzyl)-amine] gave a CC50 at 3 days in data set [1] below 5 µM. Moreover, the pEC50 in data set [2] is above 7.00.
With `NC(=O)Nc1ccc(-c2ccc3nc(NCc4ccc(S(N)(=O)=O)cc4)nc(C4CC4)c3n2)cc1` [Example 290, 4-{[4-Cyclopropyl-6-(4-ureido-phenyl)-pyrido[3,2-d]pyrimidin-2-ylamino]-methyl}-benzenesulfonamide], the CC50 at 3 days in data set [1] is 5 to 25 µM. Also, the pEC50 in data set [2] was above 7.00.
Turning to `Fc1ccc(-c2ccc3nc(NCc4nnco4)nc(NCC(F)(F)F)c3n2)cc1` [Example 247, 6-(4-Fluoro-phenyl)-N2-[1,3,4]oxadiazol-2-ylmethyl-N4-(2,2,2-trifluoro-ethyl)-pyrido[3,2-d]pyrimidine-2,4-diamine], the half-maximal cytotoxic concentration (CC50) at 3 days in data set [1] was in the range of 5 to 25 µM. Also, the pEC50 in data set [2] was above 7.00.
`C[C@H](N)C(=O)Nc1ccc(-c2ccc3nc(NCc4ccc(S(N)(=O)=O)cc4)nc(NCC(F)(F)F)c3n2)cc1F` [Example 216, 2-Amino-N-{2-fluoro-4-[2-(4-sulfamoyl-benzylamino)-4-(2,2,2-trifluoro-ethylamino)-pyrido[3,2-d]pyrimidin-6-yl]-phenyl}-propionamide] gave a CC50 at 3 days in data set [1] below 5 µM. The pEC50 in data set [2] is above 7.00.
The corresponding values for `NS(=O)(=O)c1ccc(CNc2nc(NC3CC3)c3nc(-c4ccc(C(=O)NC5CC5)cc4)ccc3n2)cc1` [Example 185, N-Cyclopropyl-4-[4-cyclopropylamino-2-(4-sulfamoyl-benzylamino)-pyrido[3,2-d]pyrimidin-6-yl]-benzamide] are 5 to 25 µM and above 7.00.
As to `CCOc1nc(NCc2ccc(CS(N)(=O)=O)cc2)nc2ccc(-c3ccc(F)cc3)nc12` [Example 270], in data set [1], the cytotoxic concentration (CC50) at 3 days fell in the range of 5 to 25 µM. For the same compound, the pEC50 in data set [2] was above 7.00.
`CCOc1nc(NCc2ccc(F)cc2)nc2ccc(-c3cccc(NS(C)(=O)=O)c3)nc12` [Example 66, N-{3-[4-Ethoxy-2-(4-fluoro-benzylamino)-pyrido[3,2-d]pyrimidin-6-yl]-phenyl}-methanesulfonamide] displayed a CC50 at 3 days in data set [1] below 5 µM. This compound also showed a pEC50 in data set [2] above 7.00.
The corresponding values for `CC(C)(CN1CCCC1)NC(=O)c1ccc(-c2ccc3nc(NCc4ccc(S(N)(=O)=O)cc4)nc(NCC(F)(F)F)c3n2)cc1` [Example 199, N-(1,1-Dimethyl-2-pyrrolidin-1-yl-ethyl)-4-[2-(4-sulfamoyl-benzylamino)-4-(2,2,2-trifluoro-ethylamino)-pyrido[3,2-d]pyrimidin-6-yl]-benzamide] are below 5 µM and above 7.00.
In turn, `NS(=O)(=O)CCNc1nc(NCC(F)(F)F)c2nc(-c3ccc(F)cc3)ccc2n1` [Example 259, 2-[6-(4-Fluoro-phenyl)-4-(2,2,2-trifluoro-ethylamino)-pyrido[3,2-d]pyrimidin-2-ylamino]-ethanesulfonic acid amide] displayed a CC50 at 3 days in data set [1] of 5 to 25 µM. Further, the pEC50 in data set [2] was above 7.00.
The corresponding values for `CCOc1nc(NCC(F)(F)F)nc2ccc(-c3ccc(F)cc3)nc12` [Example 21, [4-Ethoxy-6-(4-fluoro-phenyl)-pyrido[3,2-d]pyrimidin-2-yl]-(2,2,2-trifluoro-ethyl)-amine] are 5 to 25 µM and above 7.00.
For `CCOc1nc(NCc2ccc(S(N)(=O)=O)cc2)nc2ccc(-c3cccc(S(N)(=O)=O)c3)nc12` [Example 133, 4-{[4-Ethoxy-6-(3-(aminosulfonyl)-phenyl)-pyrido[3,2-d]pyrimidin-2-ylamino]-methyl}-benzenesulfonamide], in data set [1], the 50% cytotoxic concentration (CC50) at 3 days was 5 to 25 µM. The compound further gave a pEC50 in data set [2] above 7.00.

For the origin of these results see patent publication US8729089B2 (Gilead Sciences, Inc., priority 2006, dated 2014).
